Data on one compound can be found in publication PMC6934184, “Selective DNA-PKcs inhibition extends the therapeutic index of localized radiotherapy and chemotherapy” (The Journal of Clinical Investigation, 2019).

One may read the % inhibition as the relative decrease from the control value, in per cent. Low values mean a response near the control, high ones a response far below the control. What is called inhibition is the share of the control response that was lost under treatment. A higher inhibition goes with strong suppression.

The target in the assay is T1, PIK3C3 (hVPS34) (Homo sapiens, UniProt Q8NEB9).
T1 construct: purchased Thermo Fisher Scientific (Life Technologies) SelectScreen
As to the kind of experiment: SelectScreen Adapta. In kind it is biochemical. Conditions: ATP Km app. A digest of the protocol:
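Percent values come from Thermo SelectScreen profiling of NU5455, combining activity and binding assays. CSF1R was run in Z'LYTE format at Km app ATP, and CAMK1 in Adapta format with ATP listed at 10.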

T1 sequence (Q8NEB9 whole entry): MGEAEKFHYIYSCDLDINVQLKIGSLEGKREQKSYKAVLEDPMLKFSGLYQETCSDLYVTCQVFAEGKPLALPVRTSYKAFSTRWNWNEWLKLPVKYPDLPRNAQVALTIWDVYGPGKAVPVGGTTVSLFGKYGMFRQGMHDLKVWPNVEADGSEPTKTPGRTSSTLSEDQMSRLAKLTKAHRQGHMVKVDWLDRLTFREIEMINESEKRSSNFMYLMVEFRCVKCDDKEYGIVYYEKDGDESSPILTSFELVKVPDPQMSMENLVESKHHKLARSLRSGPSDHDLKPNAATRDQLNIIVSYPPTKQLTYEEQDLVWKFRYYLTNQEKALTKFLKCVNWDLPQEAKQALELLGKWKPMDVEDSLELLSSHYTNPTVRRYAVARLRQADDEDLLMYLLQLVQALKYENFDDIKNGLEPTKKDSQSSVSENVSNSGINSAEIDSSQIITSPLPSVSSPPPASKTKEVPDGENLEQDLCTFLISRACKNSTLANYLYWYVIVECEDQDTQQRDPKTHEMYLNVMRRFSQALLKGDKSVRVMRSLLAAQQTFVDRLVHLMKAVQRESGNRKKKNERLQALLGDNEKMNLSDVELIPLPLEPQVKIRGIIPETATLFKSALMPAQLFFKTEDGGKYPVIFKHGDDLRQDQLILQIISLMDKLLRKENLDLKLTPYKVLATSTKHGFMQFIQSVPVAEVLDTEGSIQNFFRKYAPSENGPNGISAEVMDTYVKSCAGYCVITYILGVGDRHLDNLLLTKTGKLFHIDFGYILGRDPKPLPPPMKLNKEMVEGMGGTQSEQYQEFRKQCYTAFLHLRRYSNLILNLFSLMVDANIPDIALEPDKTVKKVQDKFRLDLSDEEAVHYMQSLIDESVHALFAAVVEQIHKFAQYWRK

The compound `CN(C(=O)CN1CCOCC1)c1ccc2sc3c(-c4cccc5c(=O)cc(N6CC7CCC(C6)O7)oc45)cccc3c2c1` [NU5455] gave an inhibition at 1 µM of 85.9%. Also, where the note is “1 µM”, the “% inhibition” value is 86%.
